Test results taken from patent US20200246352A1, “Vanadyl and vanadate for use in reducing stress-induced metabolic derangement” (CFM Pharma Holding B.V., priority 2017, published 2020).
Several values for one entry are separate records, joined by “and”; a condition that tells them apart may be missing. Equal values may be shown once. Read-outs that look alike come from different tables or passages of the source.

System: healthy male Wistar rats
Conditions: for Effect of adrenaline infusion on blood glucose level: 0.1, 0.3 or 1 μg/kg/min infusion for 180 min; for Blood glucose levels, individual animals in duplicate: medium adrenaline dose (MA) 0.3 μg/kg/min
Description: In the first part of the study (Table 1, Table 3, series 1), thirteen (13) healthy male Wistar rats were anesthetized by intraperitoneal (ip.) injection of thiopental (Tiobarbital 0.5 g, Braun Medical SA) after 12 hours of fasting.

SMILES: CNCC(O)c1ccc(O)c(O)c1 (stereo not shown) [adrenaline]
- Effect of adrenaline infusion on blood glucose level: inflicts hyperglycemic state in an adrenaline dose dependent manner
- Effect of adrenaline infusion on blood glucose level (listed as Adrenaline): dose-dependent continuous increase in blood glucose level
- Blood glucose level, mean (high dose 1 μg/kg/min infusion, 0 min (before infusion)): 5.39 mM/l
- Blood glucose level, mean (high dose 1 μg/kg/min infusion, 15 min): 5.46 mM/l
- Blood glucose level, mean (high dose 1 μg/kg/min infusion, 30 min): 5.69 mM/l
- Blood glucose level, mean (high dose 1 μg/kg/min infusion, 45 min): 6.62 mM/l
- Blood glucose level, mean (high dose 1 μg/kg/min infusion, 60 min): 7.93 mM/l
- Blood glucose level, mean (high dose 1 μg/kg/min infusion, 90 min): 10.95 mM/l
- Blood glucose level, mean (high dose 1 μg/kg/min infusion, 120 min): 13.25 mM/l
- Blood glucose level, mean (high dose 1 μg/kg/min infusion, 150 min): 13.65 mM/l
- Blood glucose level, mean (high dose 1 μg/kg/min infusion, 180 min): 13.81 mM/l
- Time of peak blood glucose level after start of infusion (highest dose 1 μg/kg/min): around 120 min
- Blood glucose level, mean (low dose 0.1 μg/kg/min infusion, 0 min (before infusion)): 5.09 mM/l
- Blood glucose level, mean (low dose 0.1 μg/kg/min infusion, 15 min): 5.31 mM/l
- Blood glucose level, mean (low dose 0.1 μg/kg/min infusion, 30 min): 5.26 mM/l
- Blood glucose level, mean (low dose 0.1 μg/kg/min infusion, 45 min): 5.18 mM/l
- Blood glucose level, mean (low dose 0.1 μg/kg/min infusion, 60 min): 5.70 mM/l
- Blood glucose level, mean (low dose 0.1 μg/kg/min infusion, 90 min): 6.16 mM/l
- Blood glucose level, mean (low dose 0.1 μg/kg/min infusion, 120 min): 7.09 mM/l
- Blood glucose level, mean (low dose 0.1 μg/kg/min infusion, 150 min): 7.89 mM/l
- Blood glucose level, mean (low dose 0.1 μg/kg/min infusion, 180 min): 8.34 mM/l
- Blood glucose levels, individual animals in duplicate (30 min): 6.0 mM/l (2×) and 5.9 mM/l
- Blood glucose levels, individual animals in duplicate (45 min): 4.7 mM/l and 4.3 mM/l and 5.7 mM/l
- Blood glucose levels, individual animals in duplicate (60 min): 6.4 mM/l (2×) and 6.7 mM/l
- Blood glucose levels, individual animals in duplicate (90 min): 6.0 mM/l and 7.4 mM/l and 9.5 mM/l
- Blood glucose levels, individual animals in duplicate (120 min): 8.7 mM/l and 8.9 mM/l and 11.7 mM/l
- Blood glucose levels, individual animals in duplicate (150 min): 7.5 mM/l and 7.1 mM/l and 12.8 mM/l
- Blood glucose levels, individual animals in duplicate (180 min): 5.3 mM/l (2×) and 13.2 mM/l
- Blood glucose level, mean (medium dose 0.3 μg/kg/min infusion, 0 min (before infusion)): 5.53 mM/l
- Blood glucose level, mean (medium dose 0.3 μg/kg/min infusion, 15 min): 6.45 mM/l
- Blood glucose level, mean (medium dose 0.3 μg/kg/min infusion, 30 min): 6.36 mM/l
- Blood glucose level, mean (medium dose 0.3 μg/kg/min infusion, 45 min): 6.34 mM/l
- Blood glucose level, mean (medium dose 0.3 μg/kg/min infusion, 60 min): 7.85 mM/l
- Blood glucose level, mean (medium dose 0.3 μg/kg/min infusion, 90 min): 10.15 mM/l
- Blood glucose level, mean (medium dose 0.3 μg/kg/min infusion, 120 min): 11.36 mM/l
- Blood glucose level, mean (medium dose 0.3 μg/kg/min infusion, 150 min): 10.96 mM/l
- Blood glucose level, mean (medium dose 0.3 μg/kg/min infusion, 180 min): 10.19 mM/l
